In patent US10654818B2, “Furane derivatives as inhibitors of ATAD2” (BAYER PHARMA AKTIENGESELLSCHAFT, priority 2015, dated 2020):

How the values were obtained:
[1] = test system: NCl-H526 lung cancer; experiment: Cell proliferation assay (alamarBlue), NCl-H526; type: cell-based; conditions: GI50 = half-maximal growth inhibition
Description: (§1) The effect of ATAD2 inhibitory compounds on cancer cell proliferation might be measured as below. For example; MCF7 breast cancer cells might be seeded into 96-well microtiter plates at 2000 cells/well in 90 μl cell culture media (RPMI 1640, 10% FCS, 2 mM L-Glutamine, 10 μg/ml human Insulin, […]) and incubated for 24 h at 37° C. and 5% CO2. Note, the culturing conditions might vary from cell line to cell line depending on their standard culturing conditions. Compounds might be then delivered to the microtiter assay plates and, following a 72 h long incubation period at 37° C. and 5% CO2, the viability of the cells might be measured with addition of alamarBlue® (Invitrogen) to the medium in Victor X3 Multilabel Plate Reader (Perkin Elmer).
(§2) GI50 means half-maximal growth inhibition.

[2] = biological target: T1, recombinant, N-terminally GST-tagged ATAD2 bromodomain amino acids 981-1108 (Homo sapiens, UniProt Q6PL18); experiment: TR-FRET assay: disruption of the interaction between ATAD2 and acetylated Histone H4 (Ac-H4) peptide; type: binding; conditions: inhibition of ATAD2/Ac-H4 complex formation; 10 nM ATAD2, 50 nM Ac-H4 peptide
T1 construct: ATAD2 bromodomain amino acids 981-1108; made in house; host or cells: E. coli
T1 sequence (Q6PL18 981-1108): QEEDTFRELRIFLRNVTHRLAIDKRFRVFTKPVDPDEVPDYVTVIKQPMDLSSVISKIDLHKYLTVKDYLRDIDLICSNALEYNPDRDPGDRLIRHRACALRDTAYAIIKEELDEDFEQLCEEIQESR
Outline: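 10 nM protein (final) pre-incubated 10 min at 22 °C with compound (0.1 nM-20 μM, 11 points, duplicate), then 50 nM biotinylated Ac-H4 peptide plus anti-GST-XL665/streptavidin-Eu added for 1 h at 22 °C in HEPES pH 7.5 buffer. 665/622 nm emission ratio read; IC50 from 4-parameter fit of normalized inhibition.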

[3] = test system: MCF7 breast cancer cells; experiment: Cell proliferation assay (alamarBlue), MCF7; type: cell-based; conditions: Homo sapiens, 72 h incubation, GI50 = half-maximal growth inhibition
Description: as §1, §2

GI50 [1] [µM]	IC50 [2] [µM]	GI50 [3] [µM]	Compound
10.2	0.301	10.4	COc1cc(Cl)c(C(=O)N[C@@H](CO)Cc2ccc(C#N)cc2)cc1-c1ccc(CN[C@H](C)c2ccc(C)cc2)o1 [Example 81, 2-chloro-N-[(2R)-1-(4-cyanophenyl)-3-hydroxypropan-2-yl]-4-methoxy-5-[5-({[(1R)-1-(4-methylphenyl)ethyl]amino}methyl)-2-furyl]benzamide]
2.4	0.166	3.2	COc1cc(Cl)c(C(=O)N[C@@H](CN[C@H]2CC[C@@H](N)CC2)Cc2ccc(C#N)cc2)cc1-c1ccc(CN[C@H](C)c2ccc(C)cc2)o1 [Example 86, N-[(2R)-1-[(4-aminocyclohexyl)amino]-3-(4-cyanophenyl)propan-2-yl]-2-chloro-4-methoxy-5-[5-({[(1R)-1-(4-methylphenyl)ethyl]amino}methyl)-2-furyl]benzamide]
19.1	0.367	10.8	Cc1ccc([C@@H](C)NCc2ccc(-c3cc(C(=O)N[C@@H](CO)Cc4ccc(C#N)cc4)c(Cl)cc3O)o2)cc1 [Example 90, 2-chloro-N-[(2R)-1-(4-cyanophenyl)-3-hydroxypropan-2-yl]-4-hydroxy-5-[5-({[(1R)-1-(4-methylphenyl)ethyl]amino}methyl)-2-furyl]benzamide]
